# Molecular target: T1, VHL-ElonginBC complex (Homo sapiens, UniProt P40337)
# T1 construct: His-TEV (His-tag with TEV protease site) (cleaved yes); made in house; host or cells: E. coli BL21(DE3)
# Assay: Fluorescence-polarization (FP) competitive binding assay for VHL
# Settings: VHL ligands; VHL-ElonginBC complex and fluorescent probe both 5 nM; read-out: FP Binding affinity IC50
# Description: Cloning and Purification of VHL-ElonginBC complex. The DNA sequence of VHL (coding for residues 54-213) was constructed by PCR and inserted into a His-TEV expression vector^58 using ligation-independent cloning. The DNA sequences of Elongin B (encoding residues 1-118) and Elongin C (encoding residues 1-96) were constmcted by PCR and inserted into pCDFDuet 1 using Gibson assembly.^59 BL21(DE3) cells were transformed simultaneously with both plasmids and grown in Terrific Broth at 37° C. until an OD600 of 1.2. The cells were induced overnight with 0.4 mM IPTG at 24° C. Pelleted cells were freeze-thawed then resuspended in 20 mM Tris HCl pH7.0, 200 mM NaCl and 0.1% β-mercaptoethanol (bME) containing protease inhibitors. The cell suspension was lysed by sonication and debris removed via centrifugation. The supernatant was incubated at 4° C. for 1 hr with Ni-NTA (Qiagen) pre-washed in 20 mM Tris-HCl pH 7.0, 200 mM NaCl and 10 mM Imidazole. The protein complex was eluted in 20 mM Tris-HCl pH 7.0, 200 mM NaCl and 300 mM Imidazole, dialyzed into 20 mM Tris-HCl pH 7.0, 150 mM NaCl, and 0.01% bME and incubated with TEV protease overnight at 4° C. The protein sample was reapplied to the Ni-NTA column to remove the His-tag. The flow through containing the VHL complex was diluted to 75 mM NaCl and applied to a HiTrap Q column (GE Healthcare). The sample was eluted with a salt gradient (0.075-1 M NaCl), concentrated and further purified on a Superdex S75 column (GE Healthcare) pre-equilibrated with 20 mM Bis-Tris 7.0, 150 mM NaCl and 1 mM DTT. Samples were aliquoted and stored at −80° C.
# Binding Affinities of VHL ligands to VHL. A fluorescence-polarization (FP) competitive assay was established using VHL-ElonginBC complex and a fluorescently tagged probe (SI). The IC50 and Ki values of VHL ligands were determined in competitive binding experiments. Mixtures of 5 μL of compounds in DMSO and 95 μL of preincubated protein/tracer complex solution were added into assay plates which were incubated at rt for 60 min with gentle shaking. Final concentrations of VHL-ElonginBC complex and fluorescent probe were both 5 nM. Negative controls containing protein/probe complex only (equivalent to 0% inhibition) and positive controls containing only free probes (equivalent to 100% inhibition) were included in each assay plate. FP values in millipolarization units (mP) were measured using the Infinite M-1000 plate reader (Tecan U.S., Research Triangle Park, N.C.) in Microfluor 1 96-well, black, round-bottom plates (Thermo Scientific, Waltham, Mass.) at an excitation wavelength of 485 nm and an emission wavelength of 530 nm. IC50 values were determined by nonlinear regression fitting of the competition curves. Ki values of competitive inhibitors were obtained directly by nonlinear regression fitting, based upon the KD values of the probe and concentrations of the protein and probe in the competitive assays. All the FP competitive experiments were performed in duplicate in three independent experiments.
row,IC50,SMILES
1,6.11 ± 0.82 µM,"CC(=O)N[C@H](C(=O)N1C[C@H](O)C[C@H]1C(=O)N[C@@H](C)c1ccc(C2CC2)cc1)C(C)(C)C [46a, (2S,4R)-1-((S)-2-acetamido-3,3-dimethylbutanoyl)-N—((S)-1-(4-cyclopropylphenyl)ethyl)-4-hydroxypyrrolidine-2-carboxamide]"
2,0.196 ± 0.006 µM,"CC(=O)N[C@H](C(=O)N1C[C@H](O)C[C@H]1C(=O)N[C@@H](C)c1ccc(-c2scnc2C)cc1)C(C)(C)C [compound 11, (2S,4R)-1-((S)-2-Acetamido-3,3-dimethylbutanoyl)-4-hydroxy-N—((S)-1-(4-(4-methylthiazol-5-yl)phenyl)ethyl)pyrrolidine-2-carboxamide, reference compound]"
3,0.879 ± 0.097 µM,"C#Cc1ccc([C@H](C)NC(=O)[C@@H]2C[C@@H](O)CN2C(=O)[C@@H](NC(C)=O)C(C)(C)C)cc1 [44a, (2S,4R)-1-((S)-2-acetamido-3,3-dimethylbutanoyl)-N—((S)-1-(4-ethynylphenyl)ethyl)-4-hydroxypyrrolidine-2-carboxamide]"
4,41 ± 6.67 µM,"CC(=O)N[C@H](C(=O)N1C[C@H](O)C[C@H]1C(=O)N[C@@H](C)c1ccc(C(C)C)cc1)C(C)(C)C [47a, (2S,4R)-1-((S)-2-acetamido-3,3-dimethylbutanoyl)-4-hydroxy-N—((S)-1-(4-isopropylphenyl)ethyl)pyrrolidine-2-carboxamide]"
5,58.9 ± 5.26 µM,"CC(=O)N[C@H](C(=O)N1C[C@H](O)C[C@H]1C(=O)N[C@@H](C)c1ccc(C(C)(C)C)cc1)C(C)(C)C [48a, (2S,4R)-1-((S)-2-acetamido-3,3-dimethylbutanoyl)-N—((S)-1-(4-(tert-butyl)phenyl)ethyl)-4-hydroxypyrrolidine-2-carboxamide]"

# Molecular target: T2, ERα (Homo sapiens, UniProt P03372)
# T2 sequence (P03372 1-595): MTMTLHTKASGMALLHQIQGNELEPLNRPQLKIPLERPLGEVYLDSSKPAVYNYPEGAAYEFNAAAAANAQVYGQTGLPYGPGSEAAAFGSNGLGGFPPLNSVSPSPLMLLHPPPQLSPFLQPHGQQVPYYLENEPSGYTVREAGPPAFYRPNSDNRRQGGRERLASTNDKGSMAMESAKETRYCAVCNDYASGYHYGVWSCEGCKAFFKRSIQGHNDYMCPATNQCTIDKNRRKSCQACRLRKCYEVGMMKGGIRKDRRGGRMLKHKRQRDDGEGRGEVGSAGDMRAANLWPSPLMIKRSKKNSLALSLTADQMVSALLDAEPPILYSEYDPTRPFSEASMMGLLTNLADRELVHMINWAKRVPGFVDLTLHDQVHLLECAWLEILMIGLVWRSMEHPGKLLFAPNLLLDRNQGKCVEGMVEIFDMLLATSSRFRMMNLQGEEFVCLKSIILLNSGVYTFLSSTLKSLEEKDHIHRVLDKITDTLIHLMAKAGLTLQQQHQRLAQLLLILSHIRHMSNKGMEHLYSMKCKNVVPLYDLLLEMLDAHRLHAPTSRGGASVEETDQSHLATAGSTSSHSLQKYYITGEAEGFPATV
# Assay: ER degradation by Western blotting in MCF-7 cells
# Type: cell-based
# Parameters: host or cells: MCF-7
# Settings: 1 nM, 10 nM and 100 nM, 4 h, linkers containing 6-9 carbon atoms
# Description: FIG. 1 is an image showing the Western blotting analysis of ER protein in MCF-7 cells treated with Compounds of the Disclosure and control compounds. Cells were treated with different compounds for 4 h and whole cell lysates were then analyzed by Western blotting to examine the level of ER protein. GADPH protein was used for the loading control. The numbers below the panel represent the ERα/GADPH ratio normalized with the DMSO control at 100.
# FIG. 2 is an image showing the Western blotting analysis of ER protein in the MCF-7 cells treated with indicated compounds at 1 nM, 10 nM and 100 nM. MCF-7 cells were treated with different compounds for 4 h and whole cell lysates were analyzed by Western blotting to examine the level of ER protein. GADPH protein was used for the loading control. The numbers below the panel represent the ERα/GADPH ratio normalized with the DMSO control at 100.
# FIG. 7 is an image showing the ERα degradation dose-response Western blotting for compound 32 at 4 h in MCF-7 cells.
# FIG. 9 is an image showing the time course of ERα degradation by Western blotting by compound 32 (30 nM) and fulvestrant (30 nM) in the MCF-7 cells.
# Cell Culture. Human breast cancer cell lines MCF-7 (ATCC® HTB-22™) and T47D (ATCC® HTB-133™) were purchased from the American Type Culture Collection (ATCC), Manassas, Va., and maintained and cultured in Dulbecco's Modified Eagle's medium (DMEM) containing 10% fetal bovine serum, 1 unit/ml of penicillin and 1 μg/ml of streptomycin. Cells with 3-8 passages after purchase were used in experiments as indicated.
# Western Blot Analysis. Western blot analysis was performed essentially as described previously (Hu et al, 2015, PMID: 26358219). Cells treated with indicated compounds were lysed in Radioimmunoprecipitation Assay Protein Lysis and Extraction Buffer (25 mmol/L Tris.HCl, pH 7.6, 150 mmol/L NaCl, 1% Nonidet P-40, 1% sodium deoxycholate, and 0.1% sodium dodecyl sulfate) containing proteinase inhibitor cocktail (Roche Diagnostics, Mannheim, Germany). After determination of protein concentration by BCA assay (Fisher Scientific, Pittsburgh, Pa.), equal amounts of total protein were electrophoresed through 10% SDS-polyacrylamide gels. The separated protein bands were transferred onto PVDF membranes (GE Healthcare Life Sciences, Marlborough, Mass.) and blotted against different antibodies, as indicated. The human estrogen receptor a antibodies (AB16460) were purchased from Abeam, Inc., Cambridge, Mass. The membranes were reblotted with horseradish peroxidase-conjugated anti-glyceraldehyde-3-phosphate dehydrogenase antibody (G9295) from Sigma-Aldrich Corporation, St. Louis, Mo. The blots were scanned and the band intensities were quantified using GelQuant.NET software as described in biochemlabsolutions.com. The relative mean intensity of target proteins was expressed after normalization to the intensity of glyceraldehyde-3-phosphate dehydrogenase bands from individual repeats.
row,SMILES,ER degradation (Western blotting)
1,"CCN(CCCCCCCC(=O)N[C@H](C(=O)N1C[C@H](O)C[C@H]1C(=O)N[C@@H](C)c1ccc(-c2scnc2C)cc1)C(C)(C)C)CCOc1ccc(C(=O)c2c(-c3ccc(O)cc3)sc3cc(O)ccc23)cc1 [compound 15, (2S,4R)-1-((S)-2-(8-(Ethyl(2-(4-(6-hydroxy-2-(4-hydroxyphenyl)benzo[b]thiophene-3-carbonyl)phenoxy)ethyl)amino)octanamido)-3,3-dimethylbutanoyl)-4-hydroxy-N—((S)-1-(4-(4-methylthiazol-5-yl)phenyl)ethyl)pyrrolidine-2-carboxamide]",surprisingly effective in inducing ER degradation at concentrations as low as 1 nM
2,"CCN(CCCCCC(=O)N[C@H](C(=O)N1C[C@H](O)C[C@H]1C(=O)N[C@@H](C)c1ccc(-c2scnc2C)cc1)C(C)(C)C)CCOc1ccc(C(=O)c2c(-c3ccc(O)cc3)sc3cc(O)ccc23)cc1 [compound 18, (2S,4R)-1-((S)-2-(6-(Ethyl(2-(4-(6-hydroxy-2-(4-hydroxyphenyl)benzo[b]thiophene-3-carbonyl)phenoxy)ethyl)amino)hexanamido)-3,3-dimethylbutanoyl)-4-hydroxy-N—((S)-1-(4-(4-methylthiazol-5-yl)phenyl)ethyl)pyrrolidine-2-carboxamide]",surprisingly effective in inducing ER degradation at concentrations as low as 1 nM
3,"CCN(CCCCCCCCC(=O)N[C@H](C(=O)N1C[C@H](O)C[C@H]1C(=O)N[C@@H](C)c1ccc(-c2scnc2C)cc1)C(C)(C)C)CCOc1ccc(C(=O)c2c(-c3ccc(O)cc3)sc3cc(O)ccc23)cc1 [compound 20, (2S,4R)-1-((S)-2-(9-(Ethyl(2-(4-(6-hydroxy-2-(4-hydroxyphenyl)benzo[b]thiophene-3-carbonyl)phenoxy)ethyl)amino)nonanamido)-3,3-dimethylbutanoyl)-4-hydroxy-N—((S)-1-(4-(4-methylthiazol-5-yl)phenyl)ethyl)pyrrolidine-2-carboxamide]",surprisingly effective in inducing ER degradation at concentrations as low as 1 nM
4,"CCN(CCCCCCC(=O)N[C@H](C(=O)N1C[C@H](O)C[C@H]1C(=O)N[C@@H](C)c1ccc(-c2scnc2C)cc1)C(C)(C)C)CCOc1ccc(C(=O)c2c(-c3ccc(O)cc3)sc3cc(O)ccc23)cc1 [compound 19, (2S,4R)-1-((S)-2-(7-(Ethyl(2-(4-(6-hydroxy-2-(4-hydroxyphenyl)benzo[b]thiophene-3-carbonyl)phenoxy)ethyl)amino)heptanamido)-3,3-dimethylbutanoyl)-4-hydroxy-N—((S)-1-(4-(4-methylthiazol-5-yl)phenyl)ethyl)pyrrolidine-2-carboxamide]",surprisingly effective in inducing ER degradation at concentrations as low as 1 nM
5,"CCN(CCCCCCCCCC(=O)N[C@H](C(=O)N1C[C@H](O)C[C@H]1C(=O)N[C@@H](C)c1ccc(-c2scnc2C)cc1)C(C)(C)C)CCOc1ccc(C(=O)c2c(-c3ccc(O)cc3)sc3cc(O)ccc23)cc1 [compound 21, (2S,4R)-1-((S)-2-(10-(Ethyl(2-(4-(6-hydroxy-2-(4-hydroxyphenyl)benzo[b]thiophene-3-carbonyl)phenoxy)ethyl)amino)decanamido)-3,3-dimethylbutanoyl)-4-hydroxy-N—((S)-1-(4-(4-methylthiazol-5-yl)phenyl)ethyl)pyrrolidine-2-carboxamide]",surprisingly effective in inducing ER degradation at concentrations as low as 1 nM

# From patent publication US20220079931A1, “ESTROGEN RECEPTOR PROTEIN DEGRADERS” (THE REGENTS OF THE UNIVERSITY OF MICHIGAN, priority 2019, published 2022)
